Measurements reported in PMC6503537, “Synthesis of HDAC Substrate Peptidomimetic Inhibitors Using Fmoc Amino Acids Incorporating Zinc-Binding Groups” (Organic Letters, 2019).
Starred links: 1 amine or outer side, 2 acyl side, 3 side chain; linkers in the order of their positions; H or OH if unused. Non-standard residues stand in square brackets, D forms with d. Residues, ends and D or L forms follow the SMILES beside them. *: point of attachment. X1 = CCC(=O)CCCCC[C@H](N[*:1])C(=O)[*:2]; Asu = N[C@@H](CCCCCC(=O)O)C(=O)O; NHOH = ON*

Columns and labels:
various HDACs = tested on: various HDACs; parameters: method as in PMID 25738536; conditions: FDA approved HDAC inhibitors; cited from earlier work
HDAC1-MTA1-RBBP4 = HDAC1-MTA1-RBBP4 (Homo sapiens, UniProt Q09028+Q13330+Q13547); test: Fluorescence-based HDAC inhibition assay (BOC-Lys-AMC substrate); format: biochemical; conditions: 50 nM HDAC1-MTA1-RBBP4, 30 min at 37 °C
HDAC1-MTA1-RBBP4, sequence (Q13547 whole entry): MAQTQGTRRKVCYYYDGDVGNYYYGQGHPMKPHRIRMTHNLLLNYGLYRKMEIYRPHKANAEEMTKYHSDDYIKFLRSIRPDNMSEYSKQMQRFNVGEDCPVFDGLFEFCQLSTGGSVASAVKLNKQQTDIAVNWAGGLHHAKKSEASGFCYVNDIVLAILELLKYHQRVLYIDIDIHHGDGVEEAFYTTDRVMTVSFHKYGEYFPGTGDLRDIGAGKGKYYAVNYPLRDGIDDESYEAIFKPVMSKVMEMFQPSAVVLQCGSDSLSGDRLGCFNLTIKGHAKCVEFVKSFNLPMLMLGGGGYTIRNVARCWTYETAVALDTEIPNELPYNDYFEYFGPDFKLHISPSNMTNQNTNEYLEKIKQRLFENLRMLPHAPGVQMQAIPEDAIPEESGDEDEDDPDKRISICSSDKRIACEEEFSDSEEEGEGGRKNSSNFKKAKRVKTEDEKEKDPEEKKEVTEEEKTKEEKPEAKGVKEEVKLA
HDAC1-MTA1-RBBP4, sequence (Q13330 whole entry partner): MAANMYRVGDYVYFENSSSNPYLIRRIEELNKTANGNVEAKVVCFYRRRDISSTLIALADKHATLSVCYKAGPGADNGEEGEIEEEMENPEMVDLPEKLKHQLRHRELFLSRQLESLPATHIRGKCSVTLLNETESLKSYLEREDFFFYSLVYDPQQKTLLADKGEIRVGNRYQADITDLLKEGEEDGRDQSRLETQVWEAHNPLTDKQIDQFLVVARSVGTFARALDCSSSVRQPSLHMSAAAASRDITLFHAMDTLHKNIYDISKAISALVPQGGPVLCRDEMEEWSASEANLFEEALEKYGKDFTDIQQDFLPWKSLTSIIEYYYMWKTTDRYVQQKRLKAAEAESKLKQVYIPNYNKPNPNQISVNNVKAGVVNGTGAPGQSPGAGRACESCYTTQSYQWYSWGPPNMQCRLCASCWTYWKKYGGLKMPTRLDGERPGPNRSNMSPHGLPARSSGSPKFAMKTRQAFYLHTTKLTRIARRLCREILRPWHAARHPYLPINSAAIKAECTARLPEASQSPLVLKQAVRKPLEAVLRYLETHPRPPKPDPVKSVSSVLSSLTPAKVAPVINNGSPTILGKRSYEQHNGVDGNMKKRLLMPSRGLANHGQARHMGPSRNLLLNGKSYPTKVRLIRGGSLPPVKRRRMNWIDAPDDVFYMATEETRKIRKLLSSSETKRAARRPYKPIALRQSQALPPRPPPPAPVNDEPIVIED
HDAC1-MTA1-RBBP4, sequence (Q09028 whole entry partner): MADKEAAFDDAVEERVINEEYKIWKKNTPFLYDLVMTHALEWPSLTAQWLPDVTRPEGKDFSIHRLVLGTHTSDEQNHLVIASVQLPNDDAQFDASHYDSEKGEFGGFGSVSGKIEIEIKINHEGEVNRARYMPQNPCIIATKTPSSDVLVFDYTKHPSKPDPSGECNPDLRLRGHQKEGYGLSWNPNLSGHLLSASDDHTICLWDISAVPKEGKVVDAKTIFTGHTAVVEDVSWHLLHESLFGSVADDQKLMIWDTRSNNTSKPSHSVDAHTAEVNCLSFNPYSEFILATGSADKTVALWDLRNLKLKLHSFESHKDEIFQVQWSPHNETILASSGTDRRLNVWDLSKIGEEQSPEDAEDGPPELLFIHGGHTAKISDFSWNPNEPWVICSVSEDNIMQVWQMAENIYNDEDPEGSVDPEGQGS
Procedure: SPIs 11–14 were assessed in a fluorescence-based inhibition assay to determine potency as HDAC inhibitors (Table 2). […] The lower activity of SPIs 12–13 can be attributed to the lower zinc binding affinity of ketones. In the future these amino acids will be incorporated in various histone tails to generate a library to identify important binding interactions through additional crystal structure studies. The cell permeability of these peptides will also be investigated to determine their usefulness as cellular probes.
HDAC activity was measured by using fluorescent BOC-Lys-AMC substrate in a black 96-well format. 50 nM HDAC1-MTA1-RBBP4 was incubated with inhibitor and 100 µM BOC-Lys-AMC substrate for 30 min at 37 °C in a final volume of 50 µl (50 mM Tris pH 7.5, 150 mM NaCl, 5% Glycerol). The assay was developed by the addition of 50 µl of developer solution (2 µM TSA, 10 mg ml -1 Trypsin, 50 mM Tris pH 7.5, 100 mM NaCl). Fluorescence was measured at 335/460 nm using a Victor X5 plate reader (Perkin Elmer). All measurements were performed in triplicate and data analysed using GraphPad Prism (version 7.0, GraphPad Software, Inc). In the case of titrations IC50 values were calculated by nonlinear curve fitting with a one-site binding (hyperbola) model (Y=Bmax*X/(Kd+X).
Sequence Yield Purity IC50 Retention time Peptide content
(1 picture or pasted object on this page, not shown here)

class I HDAC = conditions: cited from earlier work
From the text: These inhibitors function by coordinating with the HDAC active site zinc through a side chain that has zinc binding properties such as a hydroxamic acid or ethyl ketone.

Compound | HDAC specificity, result in words (various HDACs) | other results
O=C(/C=C/c1cccc(S(=O)(=O)Nc2ccccc2)c1)NO [Belinostat] | nonspecific across various HDACs | –
Cc1[nH]c2ccccc2c1CCNCc1ccc(/C=C/C(=O)NO)cc1 [Panobinostat] | nonspecific across various HDACs | –
CC(=O)N[C@@H](CCCCN)C(=O)N[C@@H](C)C(=O)N[C@@H](C)C(=O)N[C@@H](CCCNC(=N)N)C(=O)N[C@@H](CCCCCC(=O)NO)C(=O)N[C@@H](CO)C(=O)N[C@@H](C)C(N)=O [SPI 11] (Ac-KAAR[Asu](NHOH)SA-NH2) | – | HDAC inhibition, result in words (HDAC1-MTA1-RBBP4; BOC-Lys-AMC substrate, pH 7.5, tested concentration not given): comparable to our previously reported SPI based on the H4 peptide sequence
CCC(=O)CCCCC[C@H](NC(=O)[C@H](CCCNC(=N)N)NC(=O)[C@H](C)NC(=O)[C@H](C)NC(=O)[C@H](CCCCN)NC(C)=O)C(=O)N[C@@H](CO)C(=O)N[C@@H](C)C(N)=O [SPI 12] (Ac-KAAR[X1]SA-NH2) | – | IC50 (HDAC1-MTA1-RBBP4; 100 M BOC-Lys-AMC substrate (so in the source), 50 mM Tris pH 7.5, 150 mM NaCl, 5% Glycerol, developer TSA/Trypsin, fluorescence 335/460 nm, triplicate, one-site binding fit, unit printed µM in SI): 17 µM
O=C(CCCCCCC(=O)Nc1ccccc1)NO [Vorinostat] | nonspecific across various HDACs | –
Apicidin A | – | HDAC inhibition, result in words (class I HDAC): class I selective HDAC inhibition in the nanomolar range
Romidepsin | nonspecific across various HDACs | –
